Literature values in patent US10759750B2, “Beta lactams as modulators of glutamate uptake and methods for use thereof” (Temple University—Of The Commonwealth System of Higher …, priority 2016, dated 2020).
Where two headings read alike, the source gives them in different places.

Key:
[1] = system: amyotrophic lateral sclerosis (ALS); details: ALS patients; 50 mg of Riluzole daily and palliative drugs; after 15 months of treatment

free, unbound cerebrospinal fluid/plasma ratio (based on AUCs (Lutsar and Friedland, 2000)) | free, unbound cerebrospinal fluid/plasma ratio (based on Cmax (Chadwick et al., 1983)) | SMILES | increase in life expectancy [1]
1% | 2-13% | CO/N=C(\C(=O)N[C@@H]1C(=O)N2C(C(=O)O)=C(CSc3nc(=O)c(=O)[nH]n3C)CS[C@H]12)c1csc(N)n1 [ceftriaxone] | 
 |  | Nc1nc2ccc(OC(F)(F)F)cc2s1 [Riluzole] | 2-3 months
